Source: patent US7049340B1, “Neuroprotective and retinoprotective ophthalmologic drugs” (priority 1999, dated 2006)

Test system: severely myopic patients with degenerative chorioretinopathy
Test: Clinical treatment of degenerative chorio-retinopathy in severe myopia: corrected visual acuity
Type: in vivo, human
Method: The invention will now be illustrated by the following description of clinical examples which, of course, are not limiting in nature. In these examples the active principle, in particular ramipril, was administered continuously in an oral form, in an amount of 1.25 mg per day.
By way of example, visual acuity changed respectively: from simple light perception (LP) to 1/20 for the monophtalmic eye; from 2/10 (RE) 1/10 (LE) to 5/10 (RE) and 5/10 (LE); from 1.5/10 to 3/10; from 1/20 (both eyes) to 2/10 (RE) and 1/10 (LE); from 1/10 (RE) and 1/10 (LE) to 6/10 (RE) and 3/10 (LE). Clearly, the term RE used here means “right eye” and the term LE used here means “left eye”.

With `CCOC(=O)[C@H](CCc1ccccc1)N[C@@H](C)C(=O)N1[C@H](C(=O)O)C[C@@H]2CCC[C@@H]21` [ramipril] the “visual acuity after treatment” value (case 1, monophtalmic eye, before simple light perception (LP)) was 1/20, the “visual acuity after treatment” value (case 2, LE, before 1/10) was 5/10 and the “visual acuity after treatment” value (case 2, RE, before 2/10) was 5/10. The “visual acuity after treatment” value (case 3, before 1.5/10) was 3/10, the “visual acuity after treatment” value (case 4, LE, before 1/20) was 1/10 and the “visual acuity after treatment” value (case 4, RE, before 1/20) was 2/10. The “visual acuity after treatment” value (case 5, LE, before 1/10) was 3/10, the “visual acuity after treatment” value (case 5, RE, before 1/10) was 6/10 and the corrected visual acuity (even in a low dose, always, despite extremely severe myopic choroidosis) was “improvement in corrected visual acuity”.
